For data set [1], the system named is Plasmodium yoelii nigeriensis. As to the kind of experiment: Survival in multidrug-resistant Plasmodium yoelii nigeriensis infected Swiss mice (Mus musculus) at 12 mg/kg peroral dose after 28 days. It is filed as functional.
Data set [2] in a line: Partition coefficient, log P of the compound. To be noted: octanol/water. It is filed as physicochemical.
For data set [3], the system named is Plasmodium yoelii nigeriensis. As to the kind of experiment: Antimalarial activity as reduced parasitemia day 4 against multidrug-resistant Plasmodium yoelii nigeriensis infected Swiss mice (Mus musculus) at 24 mg/kg/day peroral dose over 4 days. It is filed as functional. Set-up: scale not given: the % may be the effect or the level left. As to conditions: route oral.

Data set [4] has as its system Plasmodium yoelii nigeriensis. Put plainly: Reduced parasitemia in multidrug-resistant Plasmodium yoelii nigeriensis infected Swiss mice (Mus musculus) at 12 mg/kg peroral dose after 4 days. To be noted: route oral. Format: functional. Set-up: scale not given: the % may be the effect or the level left.
Data set [5] deals with Plasmodium yoelii nigeriensis. Put plainly: Reduced parasitemia in multidrug-resistant Plasmodium yoelii nigeriensis infected Swiss mice (Mus musculus) at 48 mg/kg peroral dose after 4 days. Format: functional. Also noted: scale not given: the % may be the effect or the level left. As to conditions: route oral.
Data set [6] is described as follows: Chemical stability in acidic solution containing tetrahydrofuran and 10% aqueous HCl after 96 hrs. It is filed as physicochemical. As to conditions: acidic solution of tetrahydrofuran and 10% aqueous HCl; read-out: Stability.

Each structure is given as a SMILES string. The source made the active and inactive calls. The rule behind the calls is not given here.

A word on the logP: it is a log measure of how a compound divides between an organic and an aqueous phase. `C[C@H]1[C@H](OC(=O)CC23CC4CC(CC(C4)C2)C3)O[C@@H]2O[C@]3(C)CC[C@H]4[C@H](C)CC[C@@H]1[C@@]24OO3`: the Activity in data set [1] (route oral) is reported as 20%; in data set [3] it was 100%; in data set [4] it was 100%; in data set [5], 100%. The logP in data set [2] was found to be 5.99.
For the compound `C[C@H]1[C@H](OC(=O)CCC(=O)O)O[C@@H]2O[C@@]3(C)CC[C@H]4[C@H](C)CC[C@@H]1[C@@]24OO3` [ARTESUNATE], the Activity in data set [3] and in data set [5] was 100% in each case.
With `C[C@H]1[C@H](OC(=O)CC2C3CC4CC(C3)CC2C4)O[C@@H]2O[C@]3(C)CC[C@H]4[C@H](C)CC[C@@H]1[C@@]24OO3` (some centres not stated), the logP in data set [2] came out at 5.85. Besides, the Activity in data set [3], in data set [4] and in data set [5] was 100% in each case.
For the compound `C[C@H]1[C@H](OCC23CC4CC(CC(C4)C2)C3)O[C@@H]2O[C@]3(C)CC[C@H]4[C@H](C)CC[C@@H]1[C@@]24OO3`, the Activity in data set [4] was 100%.
With `C[C@H]1[C@H](OC(=O)Cc2ccc(-c3ccccc3)cc2)O[C@@H]2O[C@]3(C)CC[C@H]4[C@H](C)CC[C@@H]1[C@@]24OO3`, the lipophilicity (logP) in data set [2] came to 6.89. The Activity in data set [3] and in data set [5] was 100% throughout.
For the compound `C[C@H]1[C@H](OC(=O)C2c3ccccc3-c3ccccc32)O[C@@H]2O[C@]3(C)CC[C@H]4[C@H](C)CC[C@@H]1[C@@]24OO3`, the logP in data set [2] came to 6.61. Also, the remaining at 96 h in data set [6] came to 80%. The Activity in data set [3], in data set [4] and in data set [5] was 100% in each case.
`CCO[C@H]1O[C@@H]2O[C@@]3(C)CC[C@H]4[C@H](C)CC[C@@H]([C@H]1C)[C@@]24OO3` [ARTEMOTIL]: the Activity in data set [3] and in data set [5] was 100% in each case.
With `C[C@H]1[C@H](OCc2ccc(-c3ccccc3)cc2)O[C@@H]2O[C@]3(C)CC[C@H]4[C@H](C)CC[C@@H]1[C@@]24OO3`, the Activity in data set [4] is listed as 100%.
In the case of `C[C@H]1[C@H](OC(=O)COc2ccc(-c3ccccc3)cc2)O[C@@H]2O[C@]3(C)CC[C@H]4[C@H](C)CC[C@@H]1[C@@]24OO3`, the logP in data set [2] came to 6.53. In addition, the Activity in data set [3], in data set [4] and in data set [5] was 100% throughout.
Compound `C[C@H]1[C@H](OC(=O)CCC23CC4CC(CC(C4)C2)C3)O[C@@H]2O[C@]3(C)CC[C@H]4[C@H](C)CC[C@@H]1[C@@]24OO3` registered a logP in data set [2] of 6.41. Moreover, the Activity in data set [3], in data set [4] and in data set [5] was 100% throughout.
For `C[C@H]1[C@H](OC(=O)CC2c3ccccc3-c3ccccc32)O[C@@H]2O[C@]3(C)CC[C@H]4[C@H](C)CC[C@@H]1[C@@]24OO3`, the result in data set [1] was inactive. This compound came in with a logP in data set [2] of 6.79. In addition, the Activity in data set [3], in data set [4] and in data set [5] was 100% each time.
For the compound `C[C@H]1[C@H](OC(=O)C23CC4CC(CC(C4)C2)C3)O[C@@H]2O[C@]3(C)CC[C@H]4[C@H](C)CC[C@@H]1[C@@]24OO3`, in data set [2], the logP turned out to be 6.05. In addition, the Activity in data set [3], in data set [4] and in data set [5] was 100% throughout.
For `C[C@H]1[C@H](OC(=O)COc2ccccc2-c2ccccc2)O[C@@H]2O[C@]3(C)CC[C@H]4[C@H](C)CC[C@@H]1[C@@]24OO3`, the logP in data set [2] turned out to be 6.53. Also, the Activity in data set [3], in data set [4] and in data set [5] was 100% in each case.
In the case of `C[C@H]1[C@H](OC(=O)c2ccc(-c3ccccc3)cc2)O[C@@H]2O[C@]3(C)CC[C@H]4[C@H](C)CC[C@@H]1[C@@]24OO3`, the logP in data set [2] was found to be 6.95. Besides, the Activity in data set [3] and in data set [5] was 100% throughout.

The values above are taken from ChEMBL document CHEMBL1143215, “Orally active esters of dihydroartemisinin: Synthesis and antimalarial activity against multidrug-resistant Plasmodium yoelii in mice” (Bioorg Med Chem Lett, 2008).
